Assay [1] relates to KMS12-BM cells. Put plainly: Antiproliferative activity on KMS12-BM (NIK WT) multiple myeloma cells (CellTiter-Glo). It is filed as cell-based, human. Conditions: KMS12-BM (NIK WT) cells, 96 hr, averaged values, read-out: KMS-12 Proliferation inhibition (IC50 (nM)). The method in brief: (§1)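 Viability was read by CellTiter-Glo after 96 hr compound exposure (9-point, 1:3 serial dilutions; 0.3% DMSO final). JJN-3 and KMS12-BM cells were seeded at 15000 and 20000 per well respectively in RPMI 1640/10% FCS; blank-subtracted signals were given as percent of drug-free controls.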

In assay [2] the test system is P-IKKα levels in L363 cells. The assay is described as follows: Effect of compounds on P-IKKα levels in L363 (NIK translocated multiple myeloma) cells. To be noted: averaged values, read-out: Inhibition of pIKKα_L-363 (IC50 (nM)). It is filed as cell-based, human. The method in brief: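 L363 myeloma cells were primed 24 h with BAFF, then treated 2 h with compound (8-point, 1:3 dilutions, 1% DMSO) at 37°C. P-IKKα in lysates was measured by Mesoscale sandwich immunoassay, with the full-inhibition blank subtracted. IC50 came from a sigmoidal fit of % inhibition of control against log concentration.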

Assay [3] deals with recombinant human NF-kappaB-inducing kinase (NIK/MAP3K14) (Homo sapiens (Human), UniProt Q99558). Put plainly: Inhibition of auto-phosphorylation of recombinant human NIK/MAP3K14 activity (AlphaScreen). Conditions: averaged values over all measurements on all batches. It is filed as biochemical. The method in brief:
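AlphaScreen read-out, using anti-phospho-IKK Ser176/180 antibody, tracked NIK autophosphorylation after 1 h at 25° C. Reactions held 0.2 nM GST-NIK, 25 microM ATP and compound in 1% DMSO, Tris pH 7.5 buffer. IC50 fitted sigmoidally to blank-subtracted inhibition data.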

Assay [4] has as its system JJN-3 cells. The assay is described as follows: Antiproliferative activity on JJN-3 (NIK translocated) multiple myeloma cells (CellTiter-Glo). The format is cell-based, human. Conditions: JJN-3 (NIK translocated) cells, 96 hr, averaged values, read-out: JJN-3 Proliferation inhibition (IC50 (nM)). The method in brief: as §1
In general terms: Cellular ATP, detected with luciferase, serves as a proxy for viable cell number.

The mark [5] stands for this setting: Homo sapiens, L-363, L363 cells.

Read-outs that look alike come from different tables or passages of the source. Bounds are passed on as bounds.

Chain of recombinant human NF-kappaB-inducing kinase (NIK/MAP3K14) (Q99558 whole entry): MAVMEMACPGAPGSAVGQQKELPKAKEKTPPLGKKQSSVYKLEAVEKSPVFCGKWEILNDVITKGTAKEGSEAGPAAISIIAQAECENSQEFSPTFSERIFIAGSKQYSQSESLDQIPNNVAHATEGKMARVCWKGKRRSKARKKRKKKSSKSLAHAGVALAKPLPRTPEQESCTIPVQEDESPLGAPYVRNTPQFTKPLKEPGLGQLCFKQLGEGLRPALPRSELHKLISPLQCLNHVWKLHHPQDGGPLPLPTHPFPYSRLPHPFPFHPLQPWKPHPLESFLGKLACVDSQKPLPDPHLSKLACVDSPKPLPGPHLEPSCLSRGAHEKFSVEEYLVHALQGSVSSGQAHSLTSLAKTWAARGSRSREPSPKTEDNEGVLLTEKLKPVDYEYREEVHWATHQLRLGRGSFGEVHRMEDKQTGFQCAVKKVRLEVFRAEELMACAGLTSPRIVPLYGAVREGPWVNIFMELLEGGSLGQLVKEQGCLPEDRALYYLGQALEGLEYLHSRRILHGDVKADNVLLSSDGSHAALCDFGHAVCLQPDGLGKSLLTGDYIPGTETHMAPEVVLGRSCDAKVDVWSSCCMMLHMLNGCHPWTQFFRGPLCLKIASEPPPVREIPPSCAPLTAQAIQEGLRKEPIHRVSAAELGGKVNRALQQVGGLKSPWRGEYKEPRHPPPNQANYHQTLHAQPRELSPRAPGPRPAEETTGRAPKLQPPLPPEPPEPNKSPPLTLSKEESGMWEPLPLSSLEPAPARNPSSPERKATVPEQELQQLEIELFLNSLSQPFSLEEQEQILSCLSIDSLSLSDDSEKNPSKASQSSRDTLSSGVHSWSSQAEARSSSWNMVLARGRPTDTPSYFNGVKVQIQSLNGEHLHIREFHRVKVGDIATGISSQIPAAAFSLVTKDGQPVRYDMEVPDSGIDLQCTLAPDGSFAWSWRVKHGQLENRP

For the molecule `Cc1cc(Nc2nccc(-c3cc(C#N)c4c(c3)[C@@](C)(CO)CN4)n2)n(CC(F)F)n1` [Compound 186], the IC50 in assay [1] (Homo sapiens, KMS-12-BM, 96 h) was 617 nM; in assay [2] (setting [5]), 3 nM; in assay [3] it was 6.5 nM; in assay [4] (Homo sapiens, JJN-3, 96 h), 151 nM.
In the case of `CC(C)Oc1c(Nc2nccc(-c3cc(C#N)c4c(c3)[C@@](C)(CO)CN4)n2)cnn1C` [Compound 194], the IC50 was over 10000 nM in assay [1] (Homo sapiens, KMS-12-BM, 96 h); 29 nM in assay [2] (setting [5]); 3.1 nM in assay [3]; 407 nM in assay [4] (Homo sapiens, JJN-3, 96 h).
In the same order, the values of `CC(C)Cc1c(Nc2nccc(-c3cc(C#N)c4c(c3)[C@@](C)(CO)CN4)n2)cnn1C` [Compound 98] are over 10000 nM, 5 nM, 2 nM and 1020 nM.
On the same counts, the results for `COCCN1CCC(Cn2nc(Cl)cc2Nc2nccc(-c3cc(C#N)c4c(c3)[C@@](C)(CO)CN4)n2)CC1` [Compound 138] are 2570 nM, 178 nM, 8.3 nM and 44 nM.
In the same order, the values of `C[C@]1(CO)CNc2c(C#N)cc(-c3ccnc(Nc4cc(Cl)nn4CCC4CC4)n3)cc21` [Compound 115] are 4270 nM, 10 nM, 4.6 nM and 62 nM.
In the case of `CN1CCN(Cc2nn(C)cc2Nc2nccc(-c3cc(C#N)c4c(c3)[C@@](C)(CO)CN4)n2)CC1` [Compound 166], the IC50 was over 10000 nM in assay [1] (Homo sapiens, KMS-12-BM, 96 h); 151 nM in assay [2] (setting [5]); 13 nM in assay [3]; 37 nM in assay [4] (Homo sapiens, JJN-3, 96 h).
Regarding `Cc1cc(Nc2nccc(-c3cc(C#N)c4c(c3)[C@@](C)(CO)CN4)n2)n(CCC2CC2)n1` [Compound 96], the IC50 amounted to 3800 nM in assay [1] (Homo sapiens, KMS-12-BM, 96 h); 12 nM in assay [2] (setting [5]); 1.6 nM in assay [3]; 76 nM in assay [4] (Homo sapiens, JJN-3, 96 h).
On the same counts, the results for `CC(C)n1nc(CO)cc1Nc1nccc(-c2cc(C#N)c3c(c2)[C@@](C)(CO)CN3)n1` [Compound 156] are about 7240 nM, 14 nM, 3.6 nM and 1260 nM.
As for `CC(C)n1nc(Nc2nccc(-c3cc(C#N)c4c(c3)C(C)(CO)CN4)n2)cc1C(=O)NC1CCOCC1` (centres unmarked) [Compound 35], the IC50 in assay [1] (Homo sapiens, KMS-12-BM, 96 h) was over 10000 nM; in assay [2] (setting [5]) it was 4 nM; in assay [3], 7.9 nM; in assay [4] (Homo sapiens, JJN-3, 96 h) it was 209 nM.
With `COCCCn1ncc(Nc2nccc(-c3cc(C#N)c4c(c3)[C@@](C)(CO)CN4)n2)c1CCC(C)C` [Compound 104], the IC50 in assay [1] (Homo sapiens, KMS-12-BM, 96 h) was over 10000 nM; in assay [2] (setting [5]) it was 15 nM; in assay [3], 3.4 nM; in assay [4] (Homo sapiens, JJN-3, 96 h), 117 nM.
As for `CC(C)CCc1nn(Cc2cncn2C)cc1Nc1nccc(-c2cc(C#N)c3c(c2)[C@@](C)(CO)CN3)n1` [Compound 130], the IC50 in assay [1] (Homo sapiens, KMS-12-BM, 96 h) was over 10000 nM; in assay [2] (setting [5]) it was 115 nM; in assay [3] it was 6 nM; in assay [4] (Homo sapiens, JJN-3, 96 h), 1000 nM.
On the same counts, the results for `CC(C)CCc1nn(C)cc1Nc1nccc(-c2cc(C#N)c3c(c2)[C@@](C)(CO)CN3)n1` [Compound 100] are over 10000 nM, about 15 nM, 2.1 nM and 54 nM.
On the same counts, the results for `C[C@]1(CO)CNc2c(C#N)cc(-c3ccnc(Nc4cnn(CCN5CCOCC5)c4Cl)n3)cc21` [Compound 208] are about 4790 nM, 4 nM, 2 nM and 48 nM.
In the same order, the values of `CN1CCN(Cc2c(Nc3nccc(-c4cc(C#N)c5c(c4)[C@@](C)(CO)CN5)n3)cnn2CCC2CC2)CC1` [Compound 167] are over 10000 nM, 62 nM, 13 nM and 83 nM.
Turning to `CC(C)CCc1c(Nc2nccc(-c3cc(C#N)c4c(c3)[C@@](C)(CO)CN4)n2)cnn1Cc1nccn1C` [Compound 117], the IC50 was over 10000 nM in assay [1] (Homo sapiens, KMS-12-BM, 96 h); 11 nM in assay [2] (setting [5]); 6 nM in assay [3]; 269 nM in assay [4] (Homo sapiens, JJN-3, 96 h).
In the same order, the values of `CN1CCC(Cn2nc(Cl)cc2Nc2nccc(-c3cc(C#N)c4c(c3)[C@@](C)(CO)CN4)n2)CC1` [Compound 124] are 832 nM, 219 nM, 6.8 nM and 49 nM.
In the same order, the values of `CC(C)Cn1nc(CO)cc1Nc1nccc(-c2cc(C#N)c3c(c2)[C@@](C)(CO)CN3)n1` [Compound 151] are 7080 nM, 13 nM, 2 nM and 871 nM.
On the same counts, the results for `Cc1cc(Nc2nccc(-c3cc(C#N)c4c(c3)[C@@](C)(CO)CN4)n2)n(C[C@@H]2CN(C)CCO2)n1` [Compound 139] are over 10000 nM, 182 nM, 13 nM and 1120 nM.
On to `CNC(=O)c1nn(CC(F)F)cc1Nc1nccc(-c2cc(C#N)c3c(c2)[C@@](C)(CO)CN3)n1` [Compound 187], for which the IC50 in assay [1] (Homo sapiens, KMS-12-BM, 96 h) is over 10000 nM; in assay [2] (setting [5]) it was 11 nM; in assay [3] it was 7.2 nM; in assay [4] (Homo sapiens, JJN-3, 96 h) it was about 1380 nM.
In the same order, the values of `Cn1cc(Nc2nccc(-c3cc(C#N)c4c(c3)[C@@](C)(CO)CN4)n2)c(OCCN2CCOCC2)n1` [Compound 203] are over 10000 nM, 25 nM, 4 nM and 339 nM.
In the same order, the values of `CC(C)Cn1nc(Cl)cc1Nc1nccc(-c2cc(C#N)c3c(c2)[C@@](C)(CO)CN3)n1` [Compound 107] are 1350 nM, 9 nM, 3.8 nM and 55 nM.
In the same order, the values of `CNC(=O)c1cc(Nc2nccc(-c3cc(C#N)c4c(c3)[C@@](C)(CO)CN4)n2)nn1C1CCCC1` [Compound 195] are over 10000 nM, 1 nM, 4.9 nM and 158 nM.
For `Cc1cc(Nc2nccc(-c3cc(C#N)c4c(c3)[C@@](C)(CO)CN4)n2)n(CC2CCOC2)n1` (single isomer, unassigned) [Compound 82], the IC50 in assay [1] is 380 nM; in assay [2] (L363 cells) it was 13 nM; in assay [3], about 5 nM; in assay [4], 182 nM.
Take `CC(C)n1nc(C2CCOCC2)cc1Nc1cc(-c2cc(C#N)c3c(c2)[C@@](C)(CO)CN3)ncn1` [Compound 91]: the IC50 in assay [1] (Homo sapiens, KMS-12-BM, 96 h) was over 10000 nM; in assay [2] (setting [5]) it was 13 nM; in assay [3], 5.5 nM; in assay [4] (Homo sapiens, JJN-3, 96 h) it was 324 nM.
For `CC(=O)OC[C@@]1(C)CNc2c(C#N)cc(-c3ccnc(Nc4cc(C)nn4CC4CCN(C)CC4)n3)cc21` [Compound 178], the IC50 in assay [1] came to 2340 nM; in assay [2] (L363 cells), 141 nM; in assay [3], 20 nM; in assay [4], 98 nM.
In the same order, the values of `CNC(=O)c1cc(Nc2nccc(-c3cc(C#N)c4c(c3)[C@@](C)(CO)CN4)n2)nn1CCC1CC1` [Compound 201] are over 10000 nM, 2 nM, 3.4 nM and 100 nM.
On to `Cc1c(Nc2nccc(-c3cc(C#N)c4c(c3)[C@@](C)(CO)CN4)n2)cnn1CCN1CCOCC1` [Compound 170], for which the IC50 is about 1780 nM in assay [1] (Homo sapiens, KMS-12-BM, 96 h); 7 nM in assay [2] (setting [5]); 2.2 nM in assay [3]; 417 nM in assay [4] (Homo sapiens, JJN-3, 96 h).
On the same counts, the results for `Cc1cc(Nc2nccc(-c3cc(C#N)c4c(c3)[C@@](C)(CO)CN4)n2)nn1CCC(C)(C)O` [Compound 109] are 468 nM, 11 nM, 3.6 nM and 50 nM.
On the same counts, the results for `CNC(=O)c1cc(Nc2nccc(-c3cc(C#N)c4c(c3)[C@@](C)(CO)CN4)n2)nn1CC(F)F` [Compound 197] are about 2240 nM, 4 nM, 2.1 nM and 204 nM.
Regarding `Cc1c(Nc2nccc(-c3cc(C#N)c4c(c3)[C@@](C)(CO)CN4)n2)cnn1CC1CCOCC1` [Compound 76], the IC50 in assay [1] (Homo sapiens, KMS-12-BM, 96 h) came to 741 nM; in assay [2] (setting [5]), 2 nM; in assay [3] it was 1.2 nM; in assay [4] (Homo sapiens, JJN-3, 96 h), 141 nM.
With `CC(C)Oc1nn(CC(F)F)cc1Nc1nccc(-c2cc(C#N)c3c(c2)[C@@](C)(CO)CN3)n1` [Compound 188], the IC50 is about 8130 nM in assay [1] (Homo sapiens, KMS-12-BM, 96 h); 4 nM in assay [2] (setting [5]); 2.9 nM in assay [3]; 138 nM in assay [4] (Homo sapiens, JJN-3, 96 h).
In the same order, the values of `COCCOc1nn(CC(F)F)cc1Nc1nccc(-c2cc(C#N)c3c(c2)[C@@](C)(CO)CN3)n1` [Compound 217] are about 7620 nM, 11 nM, 4.6 nM and 154 nM.

The values above are taken from patent US11136311B2, “Heteroaromatic derivatives as NIK inhibitors” (Janssen Pharmaceutica NV, priority 2016, dated 2021).
